Measured values taken from PubChem BioAssay (NCI).
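Five compound concentrations were applied to cells in 96-well plates for 48 hours; endpoints were derived by simple linear interpolation of the resulting dose-response curve. At the GI50, growth is halved. TGI: total growth inhibition.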

Columns and labels:
Assay in all cases: NCI-60 cell line screen, 48 h
786-0 renal = test system: 786-0 renal
A498 renal = test system: A498 renal
A549 NSCLC = test system: A549 NSCLC
ACHN renal = test system: ACHN renal
BT-549 breast = test system: BT-549 breast
CCRF-CEM leukemia = test system: CCRF-CEM leukemia
COLO 205 colon = test system: COLO 205 colon
DU-145 prostate = test system: DU-145 prostate
EKVX NSCLC = test system: EKVX NSCLC
HCC-2998 colon = test system: HCC-2998 colon
HCT-116 colon = test system: HCT-116 colon
HCT-15 colon = test system: HCT-15 colon
HL-60(TB) leukemia = test system: HL-60(TB) leukemia
HOP-62 NSCLC = test system: HOP-62 NSCLC
HOP-92 NSCLC = test system: HOP-92 NSCLC
HS 578T breast = test system: HS 578T breast
HT29 colon = test system: HT29 colon
IGROV1 ovarian = test system: IGROV1 ovarian
K-562 leukemia = test system: K-562 leukemia
KM12 colon = test system: KM12 colon
LOX IMVI melanoma = test system: LOX IMVI melanoma
M14 melanoma = test system: M14 melanoma
MALME-3M melanoma = test system: MALME-3M melanoma
MCF7 breast = test system: MCF7 breast
MDA-MB-231 breast = test system: MDA-MB-231 breast
MOLT-4 leukemia = test system: MOLT-4 leukemia
NCI-H226 lung = test system: NCI-H226 lung
NCI-H23 lung = test system: NCI-H23 lung
NCI-H460 lung = test system: NCI-H460 lung
NCI-H522 lung = test system: NCI-H522 lung
NCI/ADR-RES ovarian = test system: NCI/ADR-RES ovarian
OVCAR-3 ovarian = test system: OVCAR-3 ovarian
OVCAR-4 ovarian = test system: OVCAR-4 ovarian
OVCAR-5 ovarian = test system: OVCAR-5 ovarian
OVCAR-8 ovarian = test system: OVCAR-8 ovarian
PC-3 prostate = test system: PC-3 prostate
RPMI-8226 leukemia = test system: RPMI-8226 leukemia
RXF 393 renal = test system: RXF 393 renal
SF-268 CNS = test system: SF-268 CNS
SF-295 CNS = test system: SF-295 CNS
SF-539 CNS = test system: SF-539 CNS
SK-MEL-2 melanoma = test system: SK-MEL-2 melanoma
SK-MEL-28 melanoma = test system: SK-MEL-28 melanoma
SK-MEL-5 melanoma = test system: SK-MEL-5 melanoma
SK-OV-3 ovarian = test system: SK-OV-3 ovarian
SN12C renal = test system: SN12C renal
SNB-19 CNS = test system: SNB-19 CNS
SNB-75 CNS = test system: SNB-75 CNS
SR leukemia = test system: SR leukemia
SW-620 colon = test system: SW-620 colon
TK-10 renal = test system: TK-10 renal
U251 CNS = test system: U251 CNS
UACC-257 melanoma = test system: UACC-257 melanoma
UACC-62 melanoma = test system: UACC-62 melanoma
UO-31 renal = test system: UO-31 renal

## COc1ccc([C@@H]2[C@@H](Cl)C(=O)N2c2cc(OC)c(OC)c(OC)c2)cc1C
786-0 renal
  GI50: 64.3 nM
  TGI: 21600 nM
A498 renal
  GI50: 33.5 nM
  TGI: 314 nM
A549 NSCLC
  GI50: 273 nM
  TGI: > 100000 nM
ACHN renal
  GI50: 121 nM
  TGI: 30300 nM
BT-549 breast
  GI50: 71.7 nM
  TGI: 1130 nM
CCRF-CEM leukemia
  GI50: 46.5 nM
  TGI: > 100000 nM
COLO 205 colon
  GI50: 38.6 nM
  TGI: 159 nM
DU-145 prostate
  GI50: 40.5 nM
  TGI: 236 nM
EKVX NSCLC
  GI50: 65.9 nM
  TGI: > 100000 nM
HCC-2998 colon
  GI50: 347 nM
  TGI: 58400 nM
HCT-116 colon
  GI50: 40.1 nM
  TGI: 11400 nM
HCT-15 colon
  GI50: 53.5 nM
  TGI: > 100000 nM
HL-60(TB) leukemia
  GI50: 27.2 nM
  TGI: 76.7 nM
HOP-62 NSCLC
  GI50: 53.5 nM
  TGI: > 100000 nM
HOP-92 NSCLC
  GI50: 144 nM
  TGI: 24900 nM
HS 578T breast
  GI50: 49 nM
  TGI: 77400 nM
HT29 colon
  GI50: 32.7 nM
  TGI: 11900 nM
IGROV1 ovarian
  GI50: 84.9 nM
  TGI: 72400 nM
K-562 leukemia
  GI50: 45.6 nM
  TGI: > 100000 nM
KM12 colon
  GI50: 41.9 nM
  TGI: 17100 nM
LOX IMVI melanoma
  GI50: 69.2 nM
  TGI: 17000 nM
M14 melanoma
  GI50: 30.2 nM
  TGI: 17500 nM
MALME-3M melanoma
  GI50: 17800 nM
  TGI: 64800 nM
MCF7 breast
  GI50: 43.5 nM
  TGI: > 100000 nM
MDA-MB-231 breast
  GI50: 163 nM
  TGI: 42100 nM
MOLT-4 leukemia
  GI50: 181 nM
  TGI: > 100000 nM
NCI-H226 lung
  GI50: 13200 nM
  TGI: 73900 nM
NCI-H23 lung
  GI50: 85.3 nM
  TGI: > 100000 nM
NCI-H460 lung
  GI50: 313 nM
  TGI: 14400 nM
NCI-H522 lung
  GI50: 22.4 nM
  TGI: 71.7 nM
NCI/ADR-RES ovarian
  GI50: 42.6 nM
  TGI: > 100000 nM
OVCAR-3 ovarian
  GI50: 24.1 nM
  TGI: 58.1 nM
OVCAR-4 ovarian
  GI50: 769 nM
  TGI: > 100000 nM
OVCAR-5 ovarian
  GI50: 305 nM
  TGI: > 100000 nM
OVCAR-8 ovarian
  GI50: 50.4 nM
  TGI: 77500 nM
PC-3 prostate
  GI50: 63.3 nM
  TGI: > 100000 nM
RPMI-8226 leukemia
  GI50: 64.1 nM
  TGI: 28300 nM
RXF 393 renal
  GI50: 31.3 nM
  TGI: 20600 nM
SF-268 CNS
  GI50: 137 nM
  TGI: 25000 nM
SF-295 CNS
  GI50: 50.1 nM
  TGI: 39700 nM
SF-539 CNS
  GI50: 29.3 nM
  TGI: 14600 nM
SK-MEL-2 melanoma
  GI50: 49.6 nM
  TGI: 19600 nM
SK-MEL-28 melanoma
  GI50: 11000 nM
  TGI: > 100000 nM
SK-MEL-5 melanoma
  GI50: 55.3 nM
  TGI: 1340 nM
SK-OV-3 ovarian
  GI50: 84.1 nM
  TGI: > 100000 nM
SN12C renal
  GI50: 99.9 nM
  TGI: 21900 nM
SNB-19 CNS
  GI50: 53.5 nM
  TGI: > 100000 nM
SNB-75 CNS
  GI50: 35.5 nM
  TGI: 37900 nM
SR leukemia
  GI50: 39.7 nM
  TGI: 54400 nM
SW-620 colon
  GI50: 46.2 nM
  TGI: 34500 nM
TK-10 renal
  GI50: 10500 nM
  TGI: 79900 nM
U251 CNS
  GI50: 44 nM
  TGI: 17500 nM
UACC-257 melanoma
  GI50: 15700 nM
  TGI: 97300 nM
UACC-62 melanoma
  GI50: 60.7 nM
  TGI: 41100 nM
UO-31 renal
  GI50: 172 nM
  TGI: 47600 nM
